Source: patent US20090047246A1, “NOVEL INHIBITORS OF HEPATITIS C VIRUS REPLICATION” (InterMune, Inc., priority 2007, published 2009)
Like-named read-outs stand apart in the source and are kept apart here.

Key:
HCV NS3 helicase = target: T1, HCV NS3 helicase (Hepatitis C virus genotype 1b, UniProt P26663); experiment: HCV Helicase Prompt FRET Assay (Example A); format: biochemical
T1 construct: full-length NS3 (1-631), purified at Array BioPharma
Procedure, shortened: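 Initial unwinding rates, monitored as FAM fluorescence gain (ex 485, em 535) over ~30 min at room temperature, gave IC50 via 4- or 5-parameter logistic fits. Reactions: 50 nM quenched duplex, 250 nM capture strand, 300 μM ATP, 5–6 nM NS3 1-631 after 5 min compound preincubation, MOPS pH 7.0 buffer, 2% DMSO.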

NS3 Helicase = NS3 Helicase (Hepatitis C virus genotype 1b, UniProt P26663); experiment: Activity of NS3 Helicase in Presence of Detergent with or without LDAO (Table A); format: biochemical
Description: In another embodiment, at least one detergent is added to a solution containing NS3 to improve the helicase activity. In some embodiments, the detergent is selected from the group consisting of LDAO, Tween 20, Triton X100, Pluronic F127, CHAPS, β-octyl glucoside, laurylmaltoside, N-lauroylsarcosine, and hexadecyltrimethylammonium bromide. In a preferred embodiment, LDAO is added. In a more preferred embodiment, at least one additional detergent in added to the solution containing NS3 and LDAO. In some embodiments, the additional detergent(s) is/are selected from the group consisting of Tween 20, Triton X100, Pluronic F127, CHAPS, β-octyl glucoside, laurylmaltoside, N-lauroylsarcosine, and hexadecyltrimethylammonium bromide. Table A represents the helicase activity of NS3 in the presence of LDAO and at least one additional detergent; and, in the absence of LDAO and the presence of at least one other detergent.

[1] = HCV NS3 helicase, tables do not say whether Example A or Example B assay, read-out: IC50 Activity
[2] = Table 37, compounds made using Scheme 55, read-out: IC50 Activity
[3] = Table 38, compounds made using Scheme 56, Scheme 57 and Scheme 61, read-out: IC50 Activity
[4] = Table 36, compounds made using Scheme 54, read-out: IC50 Activity
[5] = Table 35, compounds made using Scheme 53, read-out: IC50 Activity
[6] = plus LDAO 0.6 mM, detergent 0.05 mM
[7] = plus LDAO 0.6 mM, detergent 0.05 mM, control = 100
[8] = plus LDAO 0.6 mM, detergent 0.2 mM
[9] = plus LDAO 0.6 mM, detergent 0.2 mM, control = 100
[10] = plus LDAO 0.6 mM, detergent 0.020%
[11] = plus LDAO 0.6 mM, detergent 0.020%, control = 100
[12] = plus LDAO 0.6 mM, detergent 0.075%
[13] = plus LDAO 0.6 mM, detergent 0.075%, control = 100

T1 sequence (P26663 1027-1657): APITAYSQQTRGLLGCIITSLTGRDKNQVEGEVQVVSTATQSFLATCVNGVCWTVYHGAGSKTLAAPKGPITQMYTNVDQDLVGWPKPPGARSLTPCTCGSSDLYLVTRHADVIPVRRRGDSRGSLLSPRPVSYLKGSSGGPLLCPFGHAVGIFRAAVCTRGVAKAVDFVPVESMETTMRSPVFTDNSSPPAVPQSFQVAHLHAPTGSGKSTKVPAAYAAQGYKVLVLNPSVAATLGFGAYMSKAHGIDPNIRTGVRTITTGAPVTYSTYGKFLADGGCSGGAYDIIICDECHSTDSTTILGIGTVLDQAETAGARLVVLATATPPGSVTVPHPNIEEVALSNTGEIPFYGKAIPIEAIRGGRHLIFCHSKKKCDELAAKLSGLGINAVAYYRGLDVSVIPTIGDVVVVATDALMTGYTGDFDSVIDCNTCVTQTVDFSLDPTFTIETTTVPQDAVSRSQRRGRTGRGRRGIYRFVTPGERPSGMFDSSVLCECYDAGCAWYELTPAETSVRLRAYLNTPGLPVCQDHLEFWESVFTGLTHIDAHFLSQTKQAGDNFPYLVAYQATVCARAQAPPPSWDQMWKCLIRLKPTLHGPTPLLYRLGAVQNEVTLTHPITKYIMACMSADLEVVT
Chain of NS3 Helicase (P26663 1027-1657): as above

O=C(O)Cc1c(Cc2ccc(-c3ccccc3Cl)cc2)[nH]c2ccc(Br)cc12 [Example 739]
IC50 (HCV NS3 helicase; [1]): 10 to 50 µM

O=C(O)Cc1cn(Cc2csc3ccc(Cl)cc23)c2cc(-c3ccnc(Cl)c3)ccc12 [Example 740]
IC50 (HCV NS3 helicase; [1]): 10 to 50 µM

O=C(O)Cc1cn(Cc2csc3ccc(Cl)cc23)c2cc(-c3ccnc(NCCO)c3)ccc12 [Example 741]
IC50 (HCV NS3 helicase; [1]): < 10 µM

OC1CCCN(c2ccc3ccn(Cc4csc5ccc(Cl)cc45)c3c2)C1 (stereo not drawn) [Example 742]
IC50 (HCV NS3 helicase; [1]): 10 to 50 µM

O=C(O)Cc1cn(Cc2csc3ccc(Cl)cc23)c2cc(-c3cccnc3)ccc12 [Example 743]
IC50 (HCV NS3 helicase; [1]): 10 to 50 µM

O=C(O)C(=O)c1cn(Cc2csc3ccc(Cl)cc23)c2cc(N3CCCC(O)C3)ccc12 (stereo not drawn) [Example 744]
IC50 (HCV NS3 helicase; [1]): < 10 µM

COc1cccc(-c2ccc3c(CC(=O)O)cn(Cc4csc5ccc(Cl)cc45)c3c2)c1 [Example 746]
IC50 (HCV NS3 helicase; [2]): > 50 µM

O=C(O)Cc1cn(Cc2csc3ccc(Cl)cc23)c2cc(N3CCCC(O)C3)ccc12 (stereo not drawn) [Example 746]
IC50 (HCV NS3 helicase; [1]): 10 to 50 µM

COc1ccccc1-c1ccc2c(CC(=O)O)cn(Cc3csc4ccc(Cl)cc34)c2c1 [Example 747]
IC50 (HCV NS3 helicase; [2]): > 50 µM

Nc1cc(-c2ccc3c(CC(=O)O)cn(Cc4csc5ccc(Cl)cc45)c3c2)ccn1 [Example 747]
IC50 (HCV NS3 helicase; [1]): 10 to 50 µM

Cc1ccc(-c2ccc3c(CC(=O)O)cn(Cc4csc5ccc(Cl)cc45)c3c2)cc1 [Example 751]
IC50 (HCV NS3 helicase; [2]): > 50 µM

Cc1cccc(-c2ccc3c(CC(=O)O)cn(Cc4csc5ccc(Cl)cc45)c3c2)c1 [Example 752]
IC50 (HCV NS3 helicase; [2]): 10 to 50 µM

O=C(O)Cc1cn(Cc2csc3ccc(Cl)cc23)c2cc(-c3ccc(Cl)cc3)ccc12 [Example 753]
IC50 (HCV NS3 helicase; [2]): > 50 µM

O=C(O)Cc1cn(Cc2csc3ccc(Cl)cc23)c2cc(-c3cccc(Cl)c3)ccc12 [Example 754]
IC50 (HCV NS3 helicase; [2]): > 50 µM

N#Cc1ccccc1-c1ccc2c(CC(=O)O)cn(Cc3csc4ccc(Cl)cc34)c2c1 [Example 755]
IC50 (HCV NS3 helicase; [2]): > 50 µM

N#Cc1cccc(-c2ccc3c(CC(=O)O)cn(Cc4csc5ccc(Cl)cc45)c3c2)c1 [Example 756]
IC50 (HCV NS3 helicase; [2]): 10 to 50 µM

N#Cc1ccc(-c2ccc3c(CC(=O)O)cn(Cc4csc5ccc(Cl)cc45)c3c2)cc1 [Example 757]
IC50 (HCV NS3 helicase; [2]): 10 to 50 µM

O=C(O)Cc1cn(Cc2csc3ccc(Cl)cc23)c2cc(-c3ccccc3F)ccc12 [Example 758]
IC50 (HCV NS3 helicase; [2]): > 50 µM

O=C(O)Cc1cn(Cc2csc3ccc(Cl)cc23)c2cc(-c3cccc(F)c3)ccc12 [Example 759]
IC50 (HCV NS3 helicase; [2]): > 50 µM

O=C(O)Cc1cn(Cc2csc3ccc(Cl)cc23)c2cc(-c3cccc(CO)c3)ccc12 [Example 760]
IC50 (HCV NS3 helicase; [2]): 10 to 50 µM

CN(C)C(=O)c1cccc(-c2ccc3c(CC(=O)O)cn(Cc4csc5ccc(Cl)cc45)c3c2)c1 [Example 761]
IC50 (HCV NS3 helicase; [2]): 10 to 50 µM

NC(=O)c1ccccc1-c1ccc2c(CC(=O)O)cn(Cc3csc4ccc(Cl)cc34)c2c1 [Example 762]
IC50 (HCV NS3 helicase; [2]): > 50 µM

NC(=O)c1cccc(-c2ccc3c(CC(=O)O)cn(Cc4csc5ccc(Cl)cc45)c3c2)c1 [Example 763]
IC50 (HCV NS3 helicase; [2]): 10 to 50 µM

O=C(O)Cc1cn(Cc2csc3ccc(Cl)cc23)c2cc(-c3ccncc3)ccc12 [Example 764]
IC50 (HCV NS3 helicase; [2]): 10 to 50 µM

Nc1cccc(-c2ccc3c(CC(=O)O)cn(Cc4csc5ccc(Cl)cc45)c3c2)c1 [Example 765]
IC50 (HCV NS3 helicase; [2]): < 10 µM

CC(=O)Nc1cccc(-c2ccc3c(CC(=O)O)cn(Cc4csc5ccc(Cl)cc45)c3c2)c1 [Example 766]
IC50 (HCV NS3 helicase; [2]): 10 to 50 µM

NC(=O)Nc1cccc(-c2ccc3c(CC(=O)O)cn(Cc4csc5ccc(Cl)cc45)c3c2)c1 [Example 767]
IC50 (HCV NS3 helicase; [2]): 10 to 50 µM

CC(=O)Nc1ccccc1-c1ccc2c(CC(=O)O)cn(Cc3csc4ccc(Cl)cc34)c2c1 [Example 768]
IC50 (HCV NS3 helicase; [2]): 10 to 50 µM

NC(=O)Nc1ccccc1-c1ccc2c(CC(=O)O)cn(Cc3csc4ccc(Cl)cc34)c2c1 [Example 769]
IC50 (HCV NS3 helicase; [2]): > 50 µM

Cc1sc2ccc(Cl)cc2c1Cn1cc(CC(=O)O)c2ccc(-c3ccccc3)cc21 [Example 770]
IC50 (HCV NS3 helicase; [2]): < 10 µM

CCOC(=O)Cc1cn(Cc2csc3c(N(C=O)CC)cc(Cl)cc23)c2cc(Br)ccc12 [Example 771]
IC50 (HCV NS3 helicase; [3]): > 50 µM

CCNc1cc(Cl)cc2c(Cn3cc(CC(=O)O)c4ccc(Br)cc43)csc12 [Example 772]
IC50 (HCV NS3 helicase; [3]): > 50 µM

CC(C)(C)OC(=O)N(c1cc(Cl)cc2c(Cn3cc(CC(=O)O)c4ccc(Br)cc43)csc12)C1CC1 [Example 773]
IC50 (HCV NS3 helicase; [3]): > 50 µM

CC(C)(C)OC(=O)N(c1cc(Cl)cc2c(Cn3cc(CC(=O)O)c4ccc(Br)cc43)csc12)C1CC1 [Example 774]
IC50 (HCV NS3 helicase; [3]): < 10 µM

Cc1sc2ccc(Cl)cc2c1Cn1cc(CC(=O)O)c2ccc(Br)cc21 [Example 777]
IC50 (HCV NS3 helicase; [4]): 10 to 50 µM

Cc1sc2ccc(Cl)cc2c1Cn1cc(CC(=O)O)c2ccc(-c3cc(N)cc(N)c3)cc21 [Example 778]
IC50 (HCV NS3 helicase; [4]): < 10 µM

CCOC(=O)Cc1cn(Cc2csc3c(Cl)c(Cl)ccc23)c2cc(Br)ccc12 [Example 779]
IC50 (HCV NS3 helicase; [4]): > 50 µM

O=C(O)Cc1cn(Cc2csc3c(Cl)c(Cl)ccc23)c2cc(Br)ccc12 [Example 780]
IC50 (HCV NS3 helicase; [4]): > 50 µM

O=C(O)Cc1cn(Cc2csc3c(Cl)cccc23)c2cc(Br)ccc12 [Example 782]
IC50 (HCV NS3 helicase; [4]): > 50 µM

O=C(O)Cc1cn(Cc2csc3cccc(Cl)c23)c2cc(Br)ccc12 [Example 783]
IC50 (HCV NS3 helicase; [4]): 10 to 50 µM

O=C(O)Cc1cn(Cc2csc3cccc(Cl)c23)c2cc(Br)ccc12 [Example 784]
IC50 (HCV NS3 helicase; [4]): > 50 µM

O=C(O)Cc1cn(Cc2csc3cc(Cl)ccc23)c2cc(Br)ccc12 [Example 785]
IC50 (HCV NS3 helicase; [4]): > 50 µM

O=C(O)Cc1cn(Cc2csc3cc(Cl)cc(Cl)c23)c2cc(Br)ccc12 [Example 786]
IC50 (HCV NS3 helicase; [4]): > 50 µM

Nc1cc(N)cc(-c2ccc3c(CC(=O)O)cn(Cc4csc5cc(Cl)cc(Cl)c45)c3c2)c1 [Example 787]
IC50 (HCV NS3 helicase; [4]): 10 to 50 µM

Cc1sc2cc(Cl)c(F)cc2c1Cn1cc(CC(=O)O)c2ccc(-c3cc(N)cc(N)c3)cc21 [Example 788]
IC50 (HCV NS3 helicase; [4]): < 10 µM

N#Cc1ccc2c(CC(=O)O)cn(Cc3csc4ccc(Cl)cc34)c2c1 [Example 789]
IC50 (HCV NS3 helicase; [4]): 10 to 50 µM

Cc1sc2ccc(Cl)cc2c1Cn1cc(CC(=O)O)c2ccccc21 [Example 790]
IC50 (HCV NS3 helicase; [4]): > 50 µM

CCOC(=O)Cc1cn(Cc2cccc3nc(C)ccc23)c2cc(-c3cc(N)cc(N)c3)ccc12 [Example 791]
IC50 (HCV NS3 helicase; [5]): 10 to 50 µM

CCOC(=O)Cc1cn(Cc2csc3ccc(F)cc23)c2cc(-c3cc([N+](=O)[O-])cc([N+](=O)[O-])c3)ccc12 [Example 792]
IC50 (HCV NS3 helicase; [5]): > 50 µM

CCOC(=O)Cc1cn(Cc2cccc3sc(Cl)nc23)c2cc(-c3cc([N+](=O)[O-])cc([N+](=O)[O-])c3)ccc12 [Example 793]
IC50 (HCV NS3 helicase; [5]): 10 to 50 µM

CCOC(=O)Cc1cn(Cc2cccc3sc(Cl)nc23)c2cc(-c3cc(N)cc(N)c3)ccc12 [Example 794]
IC50 (HCV NS3 helicase; [5]): 10 to 50 µM

CCOC(=O)Cc1cn(C(=O)c2csc3ccc(Cl)cc23)c2cc(-c3cc([N+](=O)[O-])cc([N+](=O)[O-])c3)ccc12 [Example 795]
IC50 (HCV NS3 helicase; IC50 Activity, Table 38, compounds made using Scheme 56, Scheme 57 and Scheme 61): > 50 µM

CCCCCCCCCCCC(=O)N(C)CC(=O)O [N-lauroylsarcosine]
Slope (NS3 Helicase; [6]): −0.53 mP/min
Activity (NS3 Helicase; [7]): 87%
Slope (NS3 Helicase; [8]): −0.28 mP/min
Activity (NS3 Helicase; [9]): 46%

CCCCCCCCCCCCCCCC[N+](C)(C)C.[Br-] [hexadecyltrimethylammonium bromide]
Slope (NS3 Helicase; [6]): 0.24 mP/min
Activity (NS3 Helicase; [7]): −39%
Slope (NS3 Helicase; [8]): 0.74 mP/min
Activity (NS3 Helicase; [9]): −121%

CCCCCCCCCCCCO[C@@H]1O[C@H](CO)[C@@H](O[C@H]2O[C@H](CO)[C@@H](O)[C@H](O)[C@H]2O)[C@H](O)[C@H]1O [laurylmaltoside]
Slope (NS3 Helicase; [6]): −0.8 mP/min
Activity (NS3 Helicase; [7]): 131%
Slope (NS3 Helicase; [8]): −1.23 mP/min
Activity (NS3 Helicase; [9]): 202%

CCCCCCCCO[C@@H]1O[C@H](CO)[C@@H](O)[C@H](O)[C@H]1O [β-octyl glucoside]
Slope (NS3 Helicase; [10]): −0.45 mP/min
Activity (NS3 Helicase; [11]): 74%
Slope (NS3 Helicase; [12]): −0.38 mP/min
Activity (NS3 Helicase; [13]): 62%

Pluronic F127
Activity (NS3 Helicase; no LDAO, detergent 0.020%): 126%
Slope (NS3 Helicase; no LDAO, detergent 0.020%): −0.48 mP/min
Activity (NS3 Helicase; no LDAO, detergent 0.075%): 155%
Slope (NS3 Helicase; no LDAO, detergent 0.075%): −0.59 mP/min
Slope (NS3 Helicase; [10]): −1.14 mP/min
Activity (NS3 Helicase; [11]): 300%
Slope (NS3 Helicase; [12]): −1.29 mP/min
Activity (NS3 Helicase; [13]): 339%

Triton X100
Activity (NS3 Helicase; no LDAO, detergent 0.020%): 66%
Slope (NS3 Helicase; no LDAO, detergent 0.020%): −0.25 mP/min
Activity (NS3 Helicase; no LDAO, detergent 0.075%): 53%
Slope (NS3 Helicase; no LDAO, detergent 0.075%): −0.2 mP/min
Slope (NS3 Helicase; [10]): −1.51 mP/min
Activity (NS3 Helicase; [11]): 397%
Slope (NS3 Helicase; [12]): −1.19 mP/min
Activity (NS3 Helicase; [13]): 313%
